From US20130345214A1, “Lipoxygenase Inhibitors” (SRI International, Inc., priority 2011, published 2013) come the findings set out here.

One data set addresses T1, human 12-LOX (Homo sapiens, UniProt P18054).
T1 construct: ferric oxidation of xylenol orange from arachidonic acid in human blood platelets; endogenous in cells; host or cells: human blood platelets
T1 sequence (P18054 1-663): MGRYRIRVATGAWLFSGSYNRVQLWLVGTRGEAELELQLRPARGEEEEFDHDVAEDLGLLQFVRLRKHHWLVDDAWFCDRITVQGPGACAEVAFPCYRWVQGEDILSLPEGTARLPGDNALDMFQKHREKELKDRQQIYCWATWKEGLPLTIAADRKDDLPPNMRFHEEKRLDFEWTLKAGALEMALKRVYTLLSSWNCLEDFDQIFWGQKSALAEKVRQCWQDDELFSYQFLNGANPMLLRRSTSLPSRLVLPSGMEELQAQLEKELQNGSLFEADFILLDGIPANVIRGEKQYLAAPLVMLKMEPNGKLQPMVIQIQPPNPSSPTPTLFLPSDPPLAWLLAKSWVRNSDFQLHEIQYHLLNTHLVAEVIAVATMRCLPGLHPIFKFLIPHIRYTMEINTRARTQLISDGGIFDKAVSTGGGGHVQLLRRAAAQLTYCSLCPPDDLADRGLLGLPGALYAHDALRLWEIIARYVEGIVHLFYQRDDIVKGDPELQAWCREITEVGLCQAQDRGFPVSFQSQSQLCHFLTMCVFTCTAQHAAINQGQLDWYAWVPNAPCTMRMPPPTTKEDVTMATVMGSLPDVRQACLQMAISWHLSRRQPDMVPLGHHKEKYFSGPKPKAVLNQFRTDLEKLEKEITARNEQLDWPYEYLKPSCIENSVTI
Put plainly: colorimetric platelet 12-LOX activity assay (ferric oxidation of xylenol orange, human blood platelets). It counts as cell-based. The source says:
(§1) Table 3 provides results for exemplary subject bisindole compounds on 5-LOX, 12-LOX and 15-LOX.

Data set [1] concerns the target T2, 5-LOX (Homo sapiens, UniProt P09917).
T2 sequence (P09917 1-674): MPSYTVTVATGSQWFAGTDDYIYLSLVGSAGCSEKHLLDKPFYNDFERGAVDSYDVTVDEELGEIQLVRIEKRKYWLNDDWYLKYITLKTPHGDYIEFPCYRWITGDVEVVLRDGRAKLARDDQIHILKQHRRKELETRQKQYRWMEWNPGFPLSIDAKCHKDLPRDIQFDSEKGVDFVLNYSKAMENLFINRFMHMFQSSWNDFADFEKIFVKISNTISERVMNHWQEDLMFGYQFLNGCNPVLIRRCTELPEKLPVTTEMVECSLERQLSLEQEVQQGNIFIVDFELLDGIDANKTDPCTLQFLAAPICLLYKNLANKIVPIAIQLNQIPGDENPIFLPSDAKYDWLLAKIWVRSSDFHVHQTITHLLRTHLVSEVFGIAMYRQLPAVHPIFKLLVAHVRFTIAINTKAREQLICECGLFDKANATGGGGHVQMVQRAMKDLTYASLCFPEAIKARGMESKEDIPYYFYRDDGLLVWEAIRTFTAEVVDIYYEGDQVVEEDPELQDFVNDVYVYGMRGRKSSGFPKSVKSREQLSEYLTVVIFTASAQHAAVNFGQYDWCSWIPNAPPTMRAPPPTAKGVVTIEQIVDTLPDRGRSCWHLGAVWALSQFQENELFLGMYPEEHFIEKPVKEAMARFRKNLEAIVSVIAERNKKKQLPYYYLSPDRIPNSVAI
Put plainly: enzyme panel screening, 5-LOX. It counts as biochemical.

A further data set deals with 15-LOX. Put plainly: enzyme panel screening, 15-LOX. It counts as biochemical.
The target of another data set is COX-1 (Homo sapiens, UniProt P23219). Put plainly: effect on cyclooxygenase COX-1 activity. It counts as biochemical.
Sequence of COX-1 (P23219 24-599): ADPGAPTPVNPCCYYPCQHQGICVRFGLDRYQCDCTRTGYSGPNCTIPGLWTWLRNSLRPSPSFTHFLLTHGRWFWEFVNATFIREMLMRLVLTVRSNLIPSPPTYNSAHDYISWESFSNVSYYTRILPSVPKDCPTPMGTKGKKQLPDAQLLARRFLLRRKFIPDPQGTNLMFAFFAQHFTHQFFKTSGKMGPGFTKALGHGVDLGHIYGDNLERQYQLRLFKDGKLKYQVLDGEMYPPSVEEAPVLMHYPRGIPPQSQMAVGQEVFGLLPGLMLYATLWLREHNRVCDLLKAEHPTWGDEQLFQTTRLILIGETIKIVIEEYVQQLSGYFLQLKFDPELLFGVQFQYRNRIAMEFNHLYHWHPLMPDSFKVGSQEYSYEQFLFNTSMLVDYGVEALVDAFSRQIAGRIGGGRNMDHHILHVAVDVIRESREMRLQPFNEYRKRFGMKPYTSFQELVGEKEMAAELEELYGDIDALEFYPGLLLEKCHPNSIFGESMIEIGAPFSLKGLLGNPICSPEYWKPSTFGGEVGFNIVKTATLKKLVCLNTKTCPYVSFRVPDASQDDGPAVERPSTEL
The next data set has as its target T3, COX-2 (Homo sapiens, UniProt P35354).
T3 sequence (P35354 18-604): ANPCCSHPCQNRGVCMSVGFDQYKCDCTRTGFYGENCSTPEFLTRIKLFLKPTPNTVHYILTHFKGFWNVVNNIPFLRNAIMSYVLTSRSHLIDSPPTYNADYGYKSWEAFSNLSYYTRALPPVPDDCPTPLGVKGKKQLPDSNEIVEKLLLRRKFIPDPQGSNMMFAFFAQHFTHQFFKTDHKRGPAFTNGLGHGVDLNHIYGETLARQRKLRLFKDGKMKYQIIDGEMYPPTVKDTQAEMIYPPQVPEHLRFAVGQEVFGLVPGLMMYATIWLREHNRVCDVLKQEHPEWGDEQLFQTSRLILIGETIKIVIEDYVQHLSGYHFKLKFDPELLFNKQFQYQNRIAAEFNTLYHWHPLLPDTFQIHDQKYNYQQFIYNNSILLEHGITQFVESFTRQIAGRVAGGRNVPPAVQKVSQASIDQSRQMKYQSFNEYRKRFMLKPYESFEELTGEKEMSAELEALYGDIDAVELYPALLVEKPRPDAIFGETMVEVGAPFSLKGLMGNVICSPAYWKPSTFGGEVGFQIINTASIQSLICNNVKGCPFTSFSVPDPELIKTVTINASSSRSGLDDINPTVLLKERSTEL
Put plainly: effect on cyclooxygenase COX-2 activity. Format: biochemical.

Data set [2] has as its target kinase targets, including Akt(1,2,3), PI3K, and PDK1. Put plainly: kinase panel screening. Format: biochemical. To be noted: broad selection of kinase targets incl. Akt(1,2,3).
For the next data set, the system named is Akt and ERK activation. Put plainly: Akt and ERK activation. To be noted: by inhibiting 12-LOX mediated metabolism of arachidonic acid. It counts as cell-based.
A short description of data set [3]: glucose metabolism and body weight in mice after oral treatment. It counts as in vivo.
Data set [4] addresses T2, 5-LOX. Put plainly: fluorescence-based enzyme assay of human 5-LOX (Table 3). It counts as biochemical. To be noted: 3 μM.
Source text: as §1

Another data set concerns the target T4, 15-LOX-2 (Homo sapiens, UniProt O15296).
T4 sequence (O15296 1-676): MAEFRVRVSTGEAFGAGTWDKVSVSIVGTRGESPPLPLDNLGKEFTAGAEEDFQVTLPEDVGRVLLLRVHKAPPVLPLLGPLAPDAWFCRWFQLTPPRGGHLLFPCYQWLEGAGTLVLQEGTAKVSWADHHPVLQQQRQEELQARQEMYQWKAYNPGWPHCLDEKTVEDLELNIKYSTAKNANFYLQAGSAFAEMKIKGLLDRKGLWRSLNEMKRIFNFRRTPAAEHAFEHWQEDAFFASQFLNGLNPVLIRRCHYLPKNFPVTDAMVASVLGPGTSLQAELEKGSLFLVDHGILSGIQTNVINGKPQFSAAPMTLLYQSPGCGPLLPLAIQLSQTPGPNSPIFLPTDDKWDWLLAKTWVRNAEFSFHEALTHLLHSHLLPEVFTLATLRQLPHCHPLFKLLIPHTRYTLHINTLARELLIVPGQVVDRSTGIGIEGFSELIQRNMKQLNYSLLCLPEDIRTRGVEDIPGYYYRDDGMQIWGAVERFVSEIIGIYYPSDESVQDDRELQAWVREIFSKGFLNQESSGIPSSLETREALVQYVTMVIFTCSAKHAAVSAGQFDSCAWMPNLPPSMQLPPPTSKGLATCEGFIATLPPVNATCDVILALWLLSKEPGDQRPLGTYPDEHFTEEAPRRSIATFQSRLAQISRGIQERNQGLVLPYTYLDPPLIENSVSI
Put plainly: in vitro 15-LOX-2 inhibition (Table 3). Format: biochemical.
Source text: as §1

Structures are written as SMILES. Entries after “also recorded” stand apart in the source; their conditions may differ.

For `CCOC(=O)c1ccc2[nH]c3c(OC)c4[nH]c5ccc(C(=O)OCC)cc5c4cc3c2c1` [Compound (1)], the “12-LOX enzyme activity inhibition” value on human 12-LOX (10 uM, human blood platelets, cell-based assay) is “inhibit 12-LOX enzyme activity”. For the same compound, the half-maximal inhibitory concentration (IC50) (commonly the point on the concentration scale where inhibition reaches its midpoint) against human 12-LOX (cell-based enzyme assay) turned out to be 10 nM. Besides, at human 12-LOX (versus panels of kinases and enzymes incl. 5-LOX and 15-LOX), the “selectivity for 12-LOX” value was “selective for 12-LOX; also recorded: selectively inhibits 12-lipoxygenase enzyme activity; also recorded: selectively inhibits human 12-LOX”. For the same compound, the “effect on 5-LOX activity” value on 5-LOX [1] is “does not significantly affect the activity”. Moreover, in the data set with 15-LOX, the “effect on 15-LOX activity” value is reported as “does not significantly affect the activity”. Also, on COX-1, the “effect on COX-1 activity” value is “does not significantly affect the activity”. Moreover, the “effect on COX-2 activity” value at COX-2 is “does not significantly affect the activity”. In addition, the kinase inhibition entry in [2] is recorded as “not a kinase inhibitor”. Moreover, the “Akt and ERK activation” value in the data set with Akt and ERK activation was “inhibit Akt and ERK activation”. The “effects on glucose metabolism” value in [3] is “no adverse effects on glucose metabolism”. In addition, in data set [3] (oral, 500 mg/kg/day, 14 days), the “effects on body weights” value is recorded as “no adverse effects” and the “effects on fasting glucose levels” value is “no adverse effects”.

As for `Nc1nnnn1CCOc1c2[nH]c3ccc(Cl)cc3c2cc2c1[nH]c1ccc(Cl)cc12` [drawing 10], the inhibition (usually the drop in the measured response relative to a control, in per cent) at 3 µM amounted to 85% against 5-LOX [4], 73% on human 12-LOX and 24% at 15-LOX-2.

For `N=C(N)NCCCOc1c2[nH]c3ccc(F)cc3c2cc2c1[nH]c1ccc(F)cc12` [drawing 11], the inhibition at 3 µM was determined as 95% at 5-LOX [4], 79% at human 12-LOX and 66% against 15-LOX-2.

Consider `Fc1ccc2[nH]c3c(OC4CCNC4)c4[nH]c5ccc(F)cc5c4cc3c2c1` (stereo not drawn) [drawing 12], for which the inhibition at 3 µM came out at 86% against 5-LOX [4], 80% on human 12-LOX and 51% on 15-LOX-2.

For the compound `Clc1ccc2[nH]c3c(OCC4CCCN4)c4[nH]c5ccc(Cl)cc5c4cc3c2c1` (stereo not drawn) [drawing 13], the values for the inhibition at 3 µM on 5-LOX [4], against human 12-LOX and against 15-LOX-2 were 79%, 79% and 43%, respectively.

Turning to `Fc1ccc2[nH]c3c(OCC4CCCN4)c4[nH]c5ccc(F)cc5c4cc3c2c1` (stereo not drawn) [drawing 14], the inhibition at 3 µM was 94% on 5-LOX [4], 78% at human 12-LOX and 61% at 15-LOX-2.

On to `Fc1ccc2[nH]c3c(OCC4CCCN4)c4[nH]c5ccc(F)cc5c4c(C(F)(F)F)c3c2c1` (stereo not drawn) [drawing 17], for which the inhibition at 3 µM at 5-LOX [4] came out at 77%; at human 12-LOX, 77%; at 15-LOX-2, 17%.

With `CN(C)CCOc1c2[nH]c3ccc(F)cc3c2c(Cl)c2c1[nH]c1ccc(F)cc12` [drawing 18], the inhibition at 3 µM against 5-LOX [4] came out at 75%; on human 12-LOX, 85%; at 15-LOX-2, 17%.

Regarding `Fc1ccc2[nH]c3c(OC[C@@H]4C[C@H](F)CN4)c4[nH]c5ccc(F)cc5c4cc3c2c1` [drawing 19], the inhibition at 3 µM on 5-LOX [4] was determined as 87%; against human 12-LOX, 87%; against 15-LOX-2, 41%.

As to `CCOC(=O)c1ccc2[nH]c3c(O[C@H]4CCNC4)c4[nH]c5ccc(C(=O)OCC)cc5c4cc3c2c1` [drawing 20], the inhibition at 3 µM against 5-LOX [4] was found to be 37%; at human 12-LOX, 75%; against 15-LOX-2 it was 10%.
